Reference: ChEMBL document CHEMBL5046286, “Discovery of MAP855, an Efficacious and Selective MEK1/2 Inhibitor with an ATP-Competitive Mode of Action” (J Med Chem, 2022)
Converted amounts (≈) assume the structure as drawn.

Experiments:
[1] = Inhibition of ERK phosphorylation in human A-375 cells incubated for 3 hrs by DELFIA assay; type: cell-based; conditions: A-375, 3 h
[2] = Octanol-water partition coefficient, logP of the compound by LC-MS analysis; type: physicochemical
[3] = Permeability in PBS at pH 6.8 incubated for 5 hrs by PAMPA method; type: ADME; conditions: pH 6.8, 5 h
[4] = Solubility of compound in water at pH 6.8 by shake flask method based HPLC/UV analysis; type: physicochemical
[5] = Solubility of compound in FaSSIF at pH 6.8 by shake flask method based HPLC/UV analysis; type: physicochemical
[6] = biological target: Cytochrome P450 3A4 (Homo sapiens, UniProt P08684); assay: Inhibition of CYP3A4 (unknown origin); type: ADME
Cytochrome P450 3A4, sequence (P08684 whole entry): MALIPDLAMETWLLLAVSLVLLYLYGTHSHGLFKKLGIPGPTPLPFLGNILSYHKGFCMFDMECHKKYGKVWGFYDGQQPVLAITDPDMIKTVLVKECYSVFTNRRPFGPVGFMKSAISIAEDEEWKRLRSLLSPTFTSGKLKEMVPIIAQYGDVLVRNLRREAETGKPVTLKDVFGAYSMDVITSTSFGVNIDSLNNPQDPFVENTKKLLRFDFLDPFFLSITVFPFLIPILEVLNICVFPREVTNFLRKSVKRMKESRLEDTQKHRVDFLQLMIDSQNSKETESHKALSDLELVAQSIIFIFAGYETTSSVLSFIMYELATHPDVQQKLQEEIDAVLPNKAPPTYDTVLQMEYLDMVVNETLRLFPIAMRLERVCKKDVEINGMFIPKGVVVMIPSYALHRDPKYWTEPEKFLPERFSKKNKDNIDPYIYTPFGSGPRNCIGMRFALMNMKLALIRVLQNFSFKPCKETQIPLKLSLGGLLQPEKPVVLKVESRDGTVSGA

[7] = Clearance in Wistar rat at 3 mg/kg, iv measured up to 24 hrs by LC-MS/MS analysis; type: ADME, organism-based; conditions: in vivo
[8] = Oral bioavailability in Wistar rat at 10 mg/kg measured up to 24 hrs by LC-MS/MS analysis; type: ADME, organism-based; conditions: Wistar, in vivo
[9] = Clearence in CD-1 mouse at 3 mg/kg, iv; type: ADME, organism-based; conditions: in vivo
[10] = Protein binding in human plasma assessed as free fraction; type: ADME, cell-free
[11] = test system: A-375; assay: Antitumor activity against human A-375 cells xenografted in CD1 mouse assessed as tumor growth inhibition at 30 mg/kg bid via oral gavage; type: functional; conditions: A-375, po, read-out: TGI
[12] = Dissociation constant, pKa of compound; type: physicochemical

logP [2] | log(permeability) [3] | solubility thermodynamic [4] | solubility thermodynamic [5] | IC50 [6] | SMILES | other results
3.3 | -4.7 | 11 µM (≈ 5.81 µg/mL) | 106 µM (≈ 56 µg/mL) | 1600 nM | Cc1nc2cnc3cc(F)c(-c4ccc(Oc5ncccn5)cc4Cl)cc3c2n1C1CCN(CC#N)CC1 | IC50 [1]: 60 nM; clearance [7]: 16 mL/min/kg; bioavailability [8]: 0%
3.5 | -5.3 | 12 µM (≈ 6.53 µg/mL) | 6 µM (≈ 3.26 µg/mL) |  | N#CCN1CCC(n2c(CO)nc3cnc4cc(F)c(-c5ccc(Oc6ncccn6)cc5Cl)cc4c32)CC1 | 
4.4 | -4.6 | < 4 µM | 9 µM (≈ 4.97 µg/mL) |  | COc1cc(Oc2ccccn2)ccc1-c1cc2c(cc1F)ncc1nc(C(C)O)n(C3CCN(CC#N)CC3)c12 (stereo not drawn) | 
5.1 | -4.1 | < 4 µM | 175 µM (≈ 92.2 µg/mL) |  | Cc1nc2cnc3cc(F)c(-c4ccc(Oc5ccccn5)cc4Cl)cc3c2n1C1CCN(CC#N)CC1 | 
2.3 | -4.5 | 33 µM (≈ 17.3 µg/mL) | 221 µM (≈ 116 µg/mL) |  | COc1cc(Oc2ncccn2)ccc1-c1cc2c(cc1F)ncc1nc(C)n(C3CCN(CC#N)CC3)c12 | 
2 |  |  |  | 11000 nM | Cc1nc2cnc3cc(F)c(-c4ccc(Oc5ncccn5)cc4Cl)cc3c2n1C1CCN(C(=O)CO)CC1 | EC50 [1]: 50000 nM; fraction unbound [10]: 0.05; inhibition in vivo at 30 mg/kg [11]: 41%; clearance [7]: 34 mL/min/kg; bioavailability [8]: 37%
4.6 | -3.9 | < 4 µM | 22 µM (≈ 11.5 µg/mL) |  | COc1cc(Oc2ccccn2)ccc1-c1cc2c(cc1F)ncc1nc(C)n(C3CCN(CC#N)CC3)c12 | 

Continued, compound first:

SMILES | logP [2] | log(permeability) [3] | solubility thermodynamic [4] | solubility thermodynamic [5] | IC50 [6] | other results
N#CCN1CCN(n2cnc3cnc4cc(F)c(-c5ccc(Oc6ncccn6)cc5Cl)cc4c32)CC1 | 3.2 |  |  |  |  | IC50 [1]: 120 nM
N#CCc1ccc(-n2cnc3cnc4cc(F)c(-c5ccc(Oc6ccccn6)cc5Cl)cc4c32)cc1 |  |  |  |  | < 500 nM | EC50 [1]: 3000 nM; clearance [7]: 8 mL/min/kg; bioavailability [8]: 5%
O=C(CO)N1CC[C@H](n2cnc3cnc4cc(F)c(-c5ccc(Oc6ncccn6)cc5Cl)cc4c32)[C@@H](F)C1 | 2.3 |  |  |  | > 20000 nM | 
Cc1nc2cnc3cc(F)c(-c4ccc(Oc5ncccn5)cc4Cl)cc3c2n1[C@H]1CC[C@@](N)(CC#N)CC1 | 1.2 |  |  |  | 1200 nM | 
Cc1nc2cnc3cc(F)c(-c4ccc(Oc5ncccn5)cc4Cl)cc3c2n1[C@H]1CC[C@](N)(CC#N)CC1 |  |  |  |  | 12100 nM | 
CC(O)c1nc2cnc3cc(F)c(-c4ccc(Oc5ccccn5)cc4Cl)cc3c2n1C1CCN(CC#N)CC1 (stereo not drawn) |  | -4.7 | < 4 µM | 22 µM (≈ 12.3 µg/mL) |  | 
CC1(n2cnc3cnc4cc(F)c(-c5ccc(Oc6ncccn6)cc5Cl)cc4c32)CCC(CC#N)CC1 (stereo not drawn) | 4.6 |  |  |  | < 500 nM | clearance [9]: 6 mL/min/kg
OCCN1CCC(n2cnc3cnc4cc(F)c(-c5ccc(Oc6ccccn6)cc5Cl)cc4c32)CC1 | 4.6 | -4.4 | 67 µM (≈ 34.7 µg/mL) |  |  | pKa [12]: 6.9
COCC(=O)N1CC[C@H](n2c(C)nc3cnc4cc(F)c(-c5ccc(Oc6ncccn6)cc5Cl)cc4c32)[C@@H](F)C1 | 3.2 |  |  |  | 5000 nM | 
